Molecular target: T1, human IDO1 (Homo sapiens, UniProt P14902)
T1 construct: expressed in transfected cells
Test: HEK Human IDO-1 inhibition assay (kynurenine readout, Ehrlich reagent, absorbance 490 nm)
Assay type: cell-based
Settings: human IDO1/HEK293 cells, incubated 20 hours with compound; 500 nM reference standard = 100% inhibition
Outline: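 HEK293 cells stably expressing human IDO1, treated with compound for 20 h at 37 °C in phenol red-free RPMI/10% FBS. Kynurenine detected after TCA (0.2% final, 50 °C, 30 min) by Ehrlich reagent absorbance at 490 nm; IC50 normalised to 500 nM reference standard (100%) and DMSO (0%).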

T1 sequence (P14902 whole entry): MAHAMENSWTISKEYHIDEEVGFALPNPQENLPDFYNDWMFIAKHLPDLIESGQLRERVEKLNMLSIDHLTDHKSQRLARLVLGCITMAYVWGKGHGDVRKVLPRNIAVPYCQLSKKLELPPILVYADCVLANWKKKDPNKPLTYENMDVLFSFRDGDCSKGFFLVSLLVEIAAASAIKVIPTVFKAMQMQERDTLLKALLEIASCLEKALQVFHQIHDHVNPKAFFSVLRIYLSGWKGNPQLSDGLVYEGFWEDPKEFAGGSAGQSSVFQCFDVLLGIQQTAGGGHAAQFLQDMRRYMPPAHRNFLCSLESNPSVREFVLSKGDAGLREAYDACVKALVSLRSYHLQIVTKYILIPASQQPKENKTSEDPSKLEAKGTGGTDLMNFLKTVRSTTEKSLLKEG

IC50 [nM]	Structure (SMILES)
≥ 100	Cc1c(F)cccc1NC(=O)Nc1cc(OCC(=O)O)ccc1N(CC(C)C)C1CCCCC1 [Example 28, 2-(4-(cyclohexyl(isobutyl)amino)-3-(3-(3-fluoro-2-methylphenyl)ureido)phenoxy)acetic acid]
< 100	C=C(C)CN(CCCC(F)(F)F)c1cc(F)c(OCC(=O)O)cc1NC(=O)Nc1cc(C)no1 [Example 121, 2-(2-fluoro-4-((2-methylallyl)(4,4,4-trifluorobutyl)amino)-5-(3-(3-methylisoxazol-5-yl)ureido)phenoxy)acetic acid]
≥ 100	CC(C)CN(c1ccc(OCC(=O)O)cc1NC(=O)Nc1ccc(C(F)(F)F)c(F)c1)C1CCCCC1 [Example 35, 2-(4-(cyclohexyl(isobutyl)amino)-3-(3-(3-fluoro-4-(trifluoromethyl)phenyl)ureido)phenoxy)acetic acid]
≥ 100	COCCN(c1ccc(OCC(=O)O)cc1NC(=O)Nc1ccc(F)cc1F)C1CCCCC1 [Example 117, 2-(4-(cyclohexyl(2-methoxyethyl)amino)-3-(3-(2,4-difluorophenyl)ureido)phenoxy)acetic acid]
≥ 100	Cc1ccc(NC(=O)Nc2cc(OCC(=O)O)ccc2N(CC2CC2)C2CCCCC2)cc1 [Example 131, 2-(4-(cyclohexyl(cyclopropylmethyl)amino)-3-(3-(p-tolyl)ureido)phenoxy)acetic acid]
< 5	COc1ccc(NC(=O)Nc2cc(OCC(=O)O)ccc2N(CC(C)C)C2CCCCC2)c(F)c1 [Example 25, 2-(4-(cyclohexyl(isobutyl)amino)-3-(3-(2-fluoro-4-methoxyphenyl)ureido)phenoxy)acetic acid]
< 5	COc1ccc(NC(=O)Nc2cc(OC(C)C(=O)O)ccc2N(CC(C)C)C2CCCCC2)c(F)c1 (single isomer, unassigned) [Example 64-2, 2-(4-(cyclohexyl(isobutyl)amino)-3-(3-(2-fluoro-4-methoxyphenyl)ureido)phenoxy)propanoic acid]
< 5	CC(C)CN(c1cc(F)c(OCC(=O)O)cc1NC(=O)Nc1ccc(Br)cc1F)C1CCCCC1 [Example 125, 2-(5-(3-(4-bromo-2-fluorophenyl)ureido)-4-(cyclohexyl(isobutyl)amino)-2-fluorophenoxy)acetic acid]
< 100	CC(C)CN(c1ccc(OC(C)C(=O)NS(=O)(=O)C2CC2)cc1NC(=O)Cc1ccc(Cl)cc1F)C1CCCCC1 (racemic) [Example 77, (±)-2-(3-(2-(4-chloro-2-fluorophenyl)acetamido)-4-(cyclohexyl(isobutyl)amino)phenoxy)-N-(cyclopropylsulfonyl) propanamide]
≥ 100	CC(C)CN(c1ccc(OCC(=O)O)c(F)c1NC(=O)Nc1ccc(Cl)cc1F)C1CCCCC1 [Example 107, 2-(3-(3-(4-chloro-2-fluorophenyl)ureido)-4-(cyclohexyl(isobutyl)amino)-2-fluorophenoxy)acetic acid]
≥ 100	CCOc1ccc(NC(=O)Nc2cc(OCC(=O)O)ccc2N(CC(C)C)C2CCC(F)(F)CC2)cc1 [Example 100, 2-(4-((4,4-Difluorocyclohexyl)(isobutyl)amino)-3-(3-(4-ethoxyphenyl)ureido)phenoxy)acetic acid]
< 100	COCC(Oc1ccc(N(CC(C)C)C2CCCCC2)c(NC(=O)Nc2ccc(Cl)cc2F)c1)C(=O)O (single isomer, unassigned) [Example 89-2, 2-(3-(3-(4-chloro-2-fluorophenyl)ureido)-4-(cyclohexyl(isobutyl)amino)phenoxy)-3-methoxypropanoic acid]
≥ 100	Cc1ccc(N(C)C(=O)Nc2cc(OCC(=O)O)ccc2N(CC(C)C)C2CCCCC2)cc1 [Example 40, 2-(4-(cyclohexyl(isobutyl)amino)-3-(3-methyl-3-(p-tolyl)ureido)phenoxy)acetic acid]
< 100	CC(C)CN(Cc1ccc(Cl)cc1)c1ccc(OCC(=O)O)cc1NC(=O)Nc1ccc(Cl)cc1F [Example 163, 2-(3-(3-(4-chloro-2-fluorophenyl)ureido)-4-((4-chlorobenzyl)(isobutyl)amino)phenoxy)acetic acid]
≥ 100	Cc1cc(NC(=O)Nc2cc(OCC(=O)NS(=O)(=O)C3CC3)ccc2N(CC(C)C)C2CCCCC2)no1 [Example 50, 2-(4-(cyclohexyl(isobutyl)amino)-3-(3-(5-methyl-isoxazol-3-yl)ureido)phenoxy)-N-(cyclopropylsulfonyl)acetamide]
< 5	CC(C)CN(c1ccc(OC(C)C(=O)O)cc1NC(=O)Nc1ccc(Cl)cc1F)C1CCCCC1 (single isomer, unassigned) [Example 61-1, 2-(3-(3-(4-chloro-2-fluorophenyl)ureido)-4-(cyclo-hexyl(isobutyl)amino)phenoxy)propanoic acid]
< 100	Cc1ccc(NC(=O)Nc2cc(OCC(=O)NS(=O)(=O)N(C)C)ccc2N(CC(C)C)C2CCCCC2)cc1 [Example 52, 2-(4-(cyclohexyl(isobutyl)amino)-3-(3-(p-tolyl)ureido)phenoxy)-N—(N,N-dimethylsulfamoyl)acetamide]

IC50 [nM]	Structure (SMILES)
< 100	CC(C)CN(c1ccc(OC(C)c2ncco2)cc1NC(=O)Nc1ccc(Cl)cc1F)C1CCCCC1 (stereo not shown) [Example 157, 1-(4-chloro-2-fluorophenyl)-3-(2-(cyclohexyl(isobutyl)amino)-5-(1-(oxazol-2-yl)ethoxy)phenyl)urea]
< 100	Cc1ccc(NC(=O)Nc2cc(OCc3nnn[nH]3)c(F)cc2N(CC(C)C)CC(C)C)cc1 [Example 95, 1-(5-((1H-tetrazol-5-yl)methoxy)-2-(diisobutylamino)-4-fluorophenyl)-3-(p-tolyl)urea]
< 100	CC(C)CN(c1ccc(OCC(=O)O)cc1NC(=O)Nc1cc(Cl)ccc1F)C1CCCCC1 [Example 22, 2-(3-(3-(5-chloro-2-fluorophenyl)ureido)-4-(cyclohexyl(isobutyl)amino)phenoxy)acetic acid]
≥ 100	CC(C)CN(c1ccc(OCC(=O)O)cc1NC(=O)Nc1ccon1)C1CCCCC1 [Example 10, 2-(4-(cyclohexyl(isobutyl)amino)-3-(3-(isoxazol-3-yl)ureido)phenoxy)acetic acid]
< 100	CC(C)CN(c1cc(F)c(OCC(=O)O)cc1NC(=O)Cc1ccc(Cl)cc1F)C1CCCCC1 [Example 133, 2-(5-(2-(4-chloro-2-fluorophenyl)acetamido)-4-(cyclohexyl(isobutyl)amino)-2-fluorophenoxy)acetic acid]
< 100	CC(C)CN(c1ccc(OCC(=O)O)cc1NC(=O)Nc1ccc(F)c(F)c1)C1CCCCC1 [Example 31, 2-(4-(cyclohexyl(isobutyl)amino)-3-(3-(3,4-difluorophenyl)ureido)phenoxy)acetic acid]
< 5	CCC(Oc1ccc(N(CC(C)C)C2CCOCC2)c(NC(=O)Nc2ccc(Cl)cc2F)c1)C(=O)O (single isomer, unassigned) [Example 143-2, 2-(3-(3-(4-chloro-2-fluorophenyl)ureido)-4-(isobutyl(tetrahydro-2H-pyran-4-yl)amino)phenoxy)butanoic acid]
< 5	COCC(Oc1ccc(N(CC(C)C)C2CCCCC2)c(NC(=O)Nc2ccc(Cl)cc2F)c1)C(=O)O (single isomer, unassigned) [Example 89-1, 2-(3-(3-(4-chloro-2-fluorophenyl)ureido)-4-(cyclohexyl(isobutyl)amino)phenoxy)-3-methoxypropanoic acid]
≥ 100	CC(C)CN(c1ccc(OCC(=O)O)cc1NC(=O)Nc1ccc(OCc2ccccc2)cc1)C1CCCCC1 [Example 15, 2-(3-(3-(4-(benzyloxy)phenyl)ureido)-4-(cyclohexyl(isobutyl)amino)phenoxy)acetic acid]
< 5	CC(C)CN(c1ccc(OCC(=O)NS(=O)(=O)N(C)C)cc1NC(=O)Nc1ccccc1F)C1CCCCC1 [Example 51, 2-(4-(cyclohexyl(isobutyl)amino)-3-(3-(2-fluoro-phenyl)ureido)phenoxy)-N—(N,N-dimethylsulfamoyl)acetamide]
< 5	CC(C)CN(c1c(F)cc(OCC(=O)NS(=O)(=O)C2CC2)cc1NC(=O)Nc1ccc(Cl)cc1F)C1CCCCC1 [Example 105, 2-(3-(3-(4-chloro-2-fluorophenyl)ureido)-4-(cyclohexyl(isobutyl)amino)-5-fluorophenoxy)-N-(cyclopropylsulfonyl)acetamide]
< 5	Cc1ccc(NC(=O)Nc2cc(OC3(C(=O)O)CC3)ccc2N(CC(C)C)C2CCCCC2)cc1 [Example 94, 1-(4-(cyclohexyl(isobutyl)amino)-3-(3-(p-tolyl)ureido)phenoxy)cyclopropanecarboxylic acid]
< 100	CC(C)CN(c1ccc(OC(C)C(=O)O)cc1NC(=O)Cc1ccc(Cl)c(F)c1)C1CCCCC1 (racemic) [Example 72, 2-(3-(2-(4-chloro-3-fluorophenyl)acetamido)-4-(cyclohexyl (isobutyl)amino)phenoxy)prop-anoic acid]
< 5	CCCC(Oc1ccc(N(CC(C)C)C2CCCCC2)c(NC(=O)Nc2ccc(Cl)cc2F)c1)C(=O)O (single isomer, unassigned) [Example 85-2, 2-(3-(3-(4-chloro-2-fluorophenyl)ureido)-4-(cyclohexyl(isobutyl)amino)phenoxy)pentanoic acid]
< 100	CC(C)CN(c1cc(F)c(OCC(=O)O)cc1NC(=O)Nc1ccc(F)cc1F)C1CCCCC1 [Example 124, 2-(4-(cyclohexyl(isobutyl)amino)-5-(3-(2,4-difluorophenyl)ureido)-2-fluorophenoxy)acetic acid]
< 5	CC(C)CN(c1ncc(OCC(=O)O)cc1NC(=O)Nc1ccc(Cl)cc1F)C1CCCCC1 [Example 102, 2-((5-(3-(4-chloro-2-fluorophenyl)ureido)-6-(cyclohexyl(isobutyl)amino)pyridin-3-yl)oxy)acetic acid]
≥ 100	CC(C)CN(c1ccc(OCC(=O)O)cc1NC(=O)Nc1nncs1)C1CCCCC1 [Example 6, 2-(3-(3-(1,3,4-thiadiazol-2-yl)ureido)-4-(cyclohexyl(isobutyl)amino)phenoxy)acetic acid]

— US10689331B2, “IDO inhibitors” (Bristol-Myers Squibb Company, priority 2015, dated 2020)
